According to patent US10487113B2, “Peptide having activity to improve skin condition and use thereof” (CAREGEN CO., LTD., priority 2014, dated 2019):

Tests used:
[1] = system: Human primary dermal fibroblast cells; experiment: Human primary dermal fibroblast cell proliferation, SRB assay; assay type: cell-based; settings: 1 ng/ml to 1 ug/ml, 72 hours, SRB assay OD 590 nm
Description: Human primary dermal fibroblast cells were treated with CG-Renuin (peptide of SEQ ID NO: 1) and CG-Noverin (peptide of SEQ ID NO: 2) at different concentrations (1 ng/ml to 1 ug/ml), and the cells were incubated for 72 hours in a cell incubator. Then, the cell proliferation change by the peptide treatment was analyzed through SRB assay (OD 590 nm).

[2] = system: NIH3T3 cells; experiment: Western blotting of pERK and p38 in UVA-irradiated cells; assay type: cell-based; settings: 1-10 ug/ml, 30 minutes, then UVA (8 J), 24 hours
Description: NIH3T3 cells ([…]) were seeded in a 6-well plate at a cell density of 2×10^5 cells/well, followed by incubation overnight, and then the cells were treated with CG-Renuin or CG-Noverin peptides at different concentrations (1-10 ug/ml), followed by incubation at 37 °C for 30 minutes. Then, the cells were irradiated with UVA (8 J), followed by incubation for 24 hours. The lysates were obtained by the treatment with the cell lysis buffer, followed by protein quantification. For the confirmation of the expression of cellular activating factors, western blotting was conducted using the anti-pERK (Santa Cruz Biotechnology, USA) and p38 (Santa Cruz Biotechnology, USA) antibodies.

[3] = target: T1, MMP2 (Homo sapiens, UniProt P08253); experiment: rhMMP2 inhibition by gelatin zymography; assay type: biochemical; settings: rhMMP2 mixed with peptide 0.1 ug/ml and 1 ug/ml, room temperature, 1 hour
T1 sequence (P08253 110-660): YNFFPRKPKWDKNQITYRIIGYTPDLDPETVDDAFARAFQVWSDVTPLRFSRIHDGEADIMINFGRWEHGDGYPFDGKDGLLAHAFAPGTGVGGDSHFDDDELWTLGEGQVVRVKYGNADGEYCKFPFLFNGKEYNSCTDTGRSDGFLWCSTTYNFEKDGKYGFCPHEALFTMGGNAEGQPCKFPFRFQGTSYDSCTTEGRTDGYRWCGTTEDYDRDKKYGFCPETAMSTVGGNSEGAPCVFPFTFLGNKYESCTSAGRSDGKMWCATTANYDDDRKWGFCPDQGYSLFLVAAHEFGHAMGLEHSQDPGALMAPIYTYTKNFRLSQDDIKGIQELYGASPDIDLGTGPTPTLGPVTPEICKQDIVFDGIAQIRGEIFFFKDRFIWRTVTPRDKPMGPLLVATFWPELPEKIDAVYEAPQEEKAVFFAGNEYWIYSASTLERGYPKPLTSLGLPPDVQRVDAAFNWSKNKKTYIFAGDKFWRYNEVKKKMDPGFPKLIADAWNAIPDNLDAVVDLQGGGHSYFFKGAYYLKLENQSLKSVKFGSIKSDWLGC
Description: (§1) After rhMMP2 was mixed with the peptides at different concentrations (0.1 ug/ml and 1 ug/ml), the incubation was conducted at room temperature for 1 hour. Then, in order to investigate the expression of rhMMP2 through gelatin zymography, protein electrophoresis (SDS-PAGE) was conducted using gelatin (2 mg/ml) as a substrate. After the electrophoresis, the gel was immersed in 2.5% Triton X-100 for 30 minutes, and then incubated in a buffer containing 50 mM Tris-HCl, 0.2 M NaCl, 5 mM CaCl2), and 1% Triton X-100 at 37 °C for 24 hours. After the incubation, the gel was stained with Coo-massie Brilliant Blue R250 (Sigma), and de-stained with a solution containing 5% methanol, 7.5% acetic acid, and distilled water. In addition, the bands formed by gelatin hydrolysis were observed.

[4] = target: T2, MMP2 (Mus musculus, UniProt P33434); experiment: MMP2 activity in TNF-α-induced fibroblast cells (NIH3T3), gelatin zymography; assay type: cell-based; settings: NIH3T3, MMP2 induced by TNF-α; 10, 100, 1000 ng/ml, 24 hours
T2 construct: endogenous in cells; host or cells: NIH3T3
Description: as §1, with “Fibroblast cells (NIH3T3) were seeded in a 24-well plate at a cell density of 3×10^4 cells/well. The next day, the cells were incubated in serum-less medium for 24 hours, and the expression and activation of MMP2 were induced by TNF-α. The cells were treated” for “After rhMMP2 was mixed”, “CG-Renuin or CG-Noverin” for “the peptides”, “(10 ng/ml, 100 ng/ml, 1000 ng/ml), followed by incubation for 24 hours. The supernatant obtained from centrifugation at 14,000×g for 10 minutes was incubated,” for “(0.1 ug/ml”, “then,” for “1 ug/ml), the incubation was conducted at room temperature for 1 hour. Then,”, “MMP2” for “rhMMP2”

[5] = system: HaCaT keratinocytes; experiment: Melanosome transfer: phagocytosis assay with fluorescent bioparticles; assay type: cell-based; settings: trypsin 1 μg/ml induction, peptide 1 μg/ml, 48 hours; trypsin treatment group considered 100%
Description: In order to observe melanosome transfer, phagocytosis assay was conducted using HaCaT keratinocytes. Bioparticles with a fluorescence substance attached thereto were used as a substance for phagocytosis. The cells were seeded in a 96-well tissue culture plate at 3×10^3 cells/well, incubated for 24 hours, and then incubated in a serum-free medium for 6 hours. Thereafter, for the induction of phagocytosis, the cells were treated with 1 μg/ml of trypsin, and then the cells were treated with 1 μg/ml of peptides for 48 hours. As a result, it was confirmed through a fluorescent microscope that the bioparticles were phagocytized into keratocytes. From the observation when the data with respect to a phagocytosis induction group, that is, a trypsin treatment group, were considered to be 100%, it was verified that phagocytosis was inhibited in the CG-Noverin treatment group and the CG-Renuin treatment group.

[6] = target: T1, MMP2; experiment: Inhibition of MMP2-induced collagen degradation in human dermal fibroblast (HDF) cells, pro-collagen type I kit; assay type: cell-based; parameters: purchased SIGMA/USA; host or cells: added to human dermal fibroblast (HDF) cells; settings: MMP2 20 ng/ml co-treatment, 6 hours, or after IGF-1 100 ng/ml, 4 hours, pro-collagen type I in supernatant
Description: Human dermal fibroblast (HDF) cells (3×10^4) were seeded in a 24-well plate. The next day, the cells were incubated in 5% serum medium for 42 hours, treated with MMP2 (20 ng/ml, SIGMA/USA) and CG-Noverin or CG-Renuin, respectively, and incubated for 6 hours. The supernatant obtained from centrifugation at 14,000×g for 10 minutes was analyzed using the pro-collagen type I kit (RnD system/USA).
Human dermal fibroblast (HDF) cells (3×10^4) were seeded in a 24-well plate, and then the next day, the medium was exchanged with a 5% serum medium. The cells were treated with IGF-1 (100 ng/ml, Sigma/USA), followed by incubation for 44 hours, and then the cells were treated with MMP2 (20 ng/ml) and CG-Noverin or CG-Renuin, respectively, followed by incubation for 4 hours. The supernatant obtained from centrifugation at 14,000×g for 10 minutes was analyzed using the pro-collagen type I kit.

T2 sequence (P33434 110-662): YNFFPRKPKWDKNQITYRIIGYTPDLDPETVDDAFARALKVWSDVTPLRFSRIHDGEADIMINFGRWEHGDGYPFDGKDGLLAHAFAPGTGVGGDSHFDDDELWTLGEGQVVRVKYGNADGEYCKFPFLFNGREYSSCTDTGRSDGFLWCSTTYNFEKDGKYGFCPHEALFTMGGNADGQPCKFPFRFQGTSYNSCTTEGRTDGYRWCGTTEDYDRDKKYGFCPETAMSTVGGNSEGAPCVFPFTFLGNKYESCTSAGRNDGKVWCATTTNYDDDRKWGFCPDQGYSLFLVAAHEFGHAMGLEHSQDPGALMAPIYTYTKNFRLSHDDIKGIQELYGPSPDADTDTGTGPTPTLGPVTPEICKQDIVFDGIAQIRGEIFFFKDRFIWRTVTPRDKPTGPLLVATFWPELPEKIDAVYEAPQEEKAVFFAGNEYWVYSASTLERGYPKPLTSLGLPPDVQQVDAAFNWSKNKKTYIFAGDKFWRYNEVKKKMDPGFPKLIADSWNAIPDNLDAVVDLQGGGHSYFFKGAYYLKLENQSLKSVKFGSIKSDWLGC

Substance | proliferation of human primary dermal fibroblast cells [1] | phosphorylation of ERK [2] | phosphorylation of P38 [2] | MMP2 activity (gelatin zymography) [3] | MMP2 activity in fibroblast cells [4] | phagocytosis (melanosome transfer) [5] | collagen degradation induced by MMP2 [6]
NH2-Cys-Pro-Arg-His-Phe-Asn-Pro-Val-Cys-COOH (H-CPRHFNPVC-OH; cysteine pairing not given here) [CG-Noverin] | increased depending on the treatment amount | increased | increased | directly inhibited | inhibited | inhibited | inhibited the induction of collagen degradation
NH2-Cys-Thr-Lys-Ile-Tyr-Asp-Pro-Val-Cys-COOH (H-CTKIYDPVC-OH; cysteine pairing not given here) [CG-Renuin] | increased depending on the treatment amount | increased | increased | directly inhibited | inhibited | inhibited | inhibited the induction of collagen degradation
